Assay results: patent US4044043A, “Derivatives of 9-oxo-13-trans-prostenoic acid esters” (American Cyanamid Company, priority 1975, dated 1977)
≈ marks a conversion by molar mass, not a printed value. Read-outs that look alike come from different tables or passages of the source.

How the values were obtained:
gastric acid secretion = assay: Inhibition of Gastric Acid Secretion (Pylorous-Ligated Rat), Shay rat procedure; format: in vivo, rats (male, CFE strain); conditions: read-out: % Inhibition of Control Gastric Acid Secretion; for inhibition in vivo at 50 mg/kg: 50 mg./kg. intraduodenal; for inhibition in vivo at 100 mg/kg: 100 mg./kg. intraduodenal
Summary of the method: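 Male CFE rats were fasted 48 h, then pylorus-ligated under ether. Gastric contents were titrated with 0.02N or 0.04N NaOH to pH 8.4 for acid output, and ≥20% inhibition counted as active.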

[1] = tested on: bronchospasms elicited by 5-hydroxytryptamine; assay: Bronchodilator Activity (Konzett Assay) against 5-hydroxytryptamine; format: in vivo, guinea pigs; conditions: Cavia porcellus; three logarithmic cumulative intravenous doses
Summary of the method: (§1)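 Guinea pigs given intravenous spasmogen (5-hydroxytryptamine, histamine or acetylcholine) per Konzett procedure. ED50 derived from three logarithmic cumulative intravenous doses of test compound.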

[2] = tested on: bronchospasms elicited by histamine; assay: Bronchodilator Activity (Konzett Assay) against histamine; format: in vivo, guinea pigs; conditions: Cavia porcellus; three logarithmic cumulative intravenous doses
Summary of the method: as §1

[3] = tested on: dl-PGE1-induced contraction of gerbil colon; assay: Inhibition of dl-PGE1-Induced Contraction of Gerbil Colon (prostaglandin antagonist action); format: cell-based, gerbils (Meriones unguiculatus); conditions: Meriones unguiculatus, 1 min
Summary of the method: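 Ascending colon from male gerbils, held in De Jalon's solution at 37 °C under 95% O2/5% CO2 with 0.5 g resting tension, contraction recorded isometrically. 1 min compound exposure, then 1 min dl-PGE1 at 200 ng/ml (maximal) or 20 ng/ml (sub-maximal). Approximate ID50 taken from a concentration series against the preceding agonist-only cycle.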

[4] = sub-maximal challenge, 20 ng./ml. dl-PGE1, 50% inhibition of maximum response, read-out: ID50 vs. 20 ng. of PGE1/ml.
[5] = 200 ng./ml. dl-PGE1, read-out: ID50 vs. 200 ng. of PGE1/ml.

SMILES	inhibition in vivo at 50 mg/kg (gastric acid secretion)	ED50 [1]	ED50 [2]	IC50 [3, 4]	inhibition in vivo at 100 mg/kg (gastric acid secretion)	IC50 [3, 5]	inhibition in vivo at 200 mg/kg (gastric acid secretion; 200 mg./kg. intraduodenal)
CCCCCC/C=C/[C@@H]1CCCC(=O)[C@H]1CCCCCCC(=O)O (relative stereo) [9-oxo-10a-homo-13-trans-prostenoic acid]	80%	> 10.1 mg/kg	10.1 mg/kg	2.5 to 5 µg/mL (≈ 7.43 to 14.9 µM)			
CCCCCCC/C=C/[C@@H]1CCC(=O)[C@H]1CCCCCCC(=O)O (relative stereo) [20-methyl-9-oxo-13-trans-prostenoic acid]		3.42 mg/kg	0.126 mg/kg	2 to 2.5 µg/mL (≈ 5.94 to 7.43 µM)	34%		
CCC/C=C/[C@H]1CCC(=O)[C@@H]1CCCCCCC(=O)O (relative stereo) [9-oxo-18,19,20-trinor-13-trans-prostenoic acid]	50%	0.484 mg/kg	0.837 mg/kg		92%	10 to 15 µg/mL (≈ 35.7 to 53.5 µM)	
CC(C)CC/C=C/[C@@H]1CCC(=O)[C@H]1CCCCCCC(=O)O (relative stereo) [17-methyl-9-oxo-19,20-dinor-13-trans-prostenoic acid]		2.8 mg/kg	1.07 mg/kg	0.25 to 0.5 µg/mL (≈ 0.81 to 1.62 µM)	28%		
CCCCCC/C=C/[C@H]1CCC(=O)[C@@H]1CCCCCCC(=O)O (relative stereo) [9-oxo-13-trans-prostenoic acid]		0.077 mg/kg	0.232 mg/kg	1.5 to 2 µg/mL (≈ 4.65 to 6.2 µM)		9 to 10 µg/mL (≈ 27.9 to 31 µM)	69%
O=C(O)CCCCCC[C@@H]1C(=O)CC[C@H]1/C=C/CCCCl (relative stereo) [20-chloro-9-oxo-17,18,19-trinor-13-trans-prostenoic acid]		1.48 mg/kg	0.928 mg/kg	1 to 2.5 µg/mL (≈ 3.18 to 7.94 µM)	34%		
O=C(O)CCCCCC[C@H]1C(=O)CC[C@@H]1/C=C/CCCCCCCl (relative stereo) [20-chloro-9-oxo-13-trans-prostenoic acid]		2.39 mg/kg	1.22 mg/kg	5 to 10 µg/mL (≈ 14 to 28 µM)	56%		
CCCCC/C=C/[C@H]1CCC(=O)[C@@H]1CCCCCCC(=O)O (relative stereo) [9-oxo-20-nor-13-trans-prostenoic acid]		0.152 mg/kg	0.126 mg/kg	5 µg/mL (≈ 16.2 µM)	49%		
CC/C=C\CC/C=C/[C@@H]1CCC(=O)[C@H]1CCCCCCC(=O)O (relative stereo) [9-oxo-13-trans-17-cis-prostadienoic acid]		0.422 mg/kg	0.65 mg/kg	2.5 to 5 µg/mL (≈ 7.8 to 15.6 µM)	21%		
